# Reference: patent US5849729A, “Use of hydrolyzed cocoa butter for percutaneous absorption” (Hershey Foods Corporation, priority 1995, dated 1998)
# Where “and” joins values, the source holds several entries; their conditions need not be identical. Equal entries are not always repeated. Entries after “also recorded” stand apart in the source; their conditions may differ.
# Assay: In-vitro percutaneous absorption of retinoic acid and triamcinolone acetonide from two cocoa butter vehicles (Franz cells, 48 h)
# Settings: for % Abs (% Absorbed) / % Absorbed / total absorption: percent of applied dose
# Description: The objective of this study was to measure the permeation of retinoic acid and triamcinolone acetonide through human skin in-vitro from two cocoa butter vehicles.
# Two cocoa butter vehicles supplied by Hershey Foods Corporation were utilized: (1) pure cocoa butter and (2) partially hydrolyzed cocoa butter emulsion. Radioactive [11,12-^3 H] [retinoic acid (NET 920, Lot 2930-067, specific activity 1 mCi/ml) and [6,7-^3 H]-triamcinolone acetonide (NET 470, Lot 2904-170, specific activity 1 mCi/ml) were obtained from Dupont-New England Nuclear Corporation, Boston, Mass.
# Each of the two cocoa butter vehicles was spiked separately with ^3 H-retinoic acid and ^3 H-Triamcinolone acetonide to give a total of four radioactive formulations for study. This was done by adding 25 μl (containing 25 μCi) of each tracer solution to approximately 1 gram of each vehicle and mixing with the tip of the dispensing micropipette. The pure cocoa butter vehicle was liquified by holding it under warm tap water prior to spiking. This was not done with the partially hydrolyzed cocoa butter emulsion. Neither formulation was used for three days after spiking to allow for diffusional mixing to take place. Final radioactive concentrations of each formulation were: […]
# Human trunk skin without obvious signs of disease was used throughout. It was obtained within 24 hours of death, dermatomed to a thickness of approximately 0.25 mm, cryopreserved and sealed in water vapor-impermeableplastic bags. It was stored at -70° C. until the day of use then thawed by placing the bag in 37° C. water.
# Skin from a single donor was cut into multiple sections large enough to fit on 0.8 cm^2 Franz cells. The dermal chamber was filled with isotonic saline, pH 7.4, into which a small magnetic stirring bar was placed. The epidermal chamber was left open to the ambient laboratory environment, approximately 22° C. and 40-60% RH. The cells were placed in a diffusion apparatus in which the dermal receptor solution was stirred magnetically at 600 RPM and its temperature maintained at 37° C.
# To assure the integrity of each skin section, its permeability to tritiated water was determined before application of the test formulations. Following a brief (0.5-1 hour) equilibration period, 150 μl ^3 H2 O (specific activity 0.3 μCi/ml) was layered across the top of the skin section so that the entire exposed surface was covered. After 5 minutes the aqueous layer was removed and the surface of the skin carefully blotted dry. At t=0.5 hour the saline receptor phase was removed and analyzed for radioactive content by liquid scintillation counting. Skin specimens in which absorption of ^3 H2 O was less than 1.25 μl were considered acceptable.
# Subsequently, each test formulation was applied at a target dose of 10 mg (cream) or 10 μl (butter). The cream formulation (partially hydrolyzed cocoa butter emulsion) was applied from the smooth, rounded-tip of a glass rod, the exact amount determined by weighing the rod before and after application. The butter formulation (pure cocoa butter) was first liquified under warm tap water, allowed to cool to room temperature, then applied with a 10 μl positive displacement micropipette prior to resolidifying. At 4, 8, 12, 24, 36 and 48 hours the receptor solution was removed in its entirety, replaced with fresh solution, and a 1 ml aliquot taken and assayed for radioactive content by liquid scintillation counting.
# A 1 ml aliquot of each receptor sample containing ^3 H2 O, ^3 H-retinoic acid, or ^3 H-triamcinolone acetonide was placed in a 7 ml glass scintillation vial and gelled by the addition of 5 ml Opti-Fluor (Packard Instrument Co., Meriden, Conn.). These were counted in a Packard Tri-Carb Model 1900CA Liquid scintillation Analyzer equipped with internal standard and automatic quench correction.
# [1] = butter (pure cocoa butter), 48 h, individual skin sections
# [2] = butter, 48 h, average of three donors
# [3] = butter, 48 h, average per skin donor (n=4), listed as RETINOIC ACID
# [4] = butter, 48 h, average per skin donor (n=4), listed as Retinoic Acid
compound,measurement,setting,value
CC1=C(/C=C/C(C)=C/C=C/C(C)=C/C(=O)O)C(C)(C)CCC1 [retinoic acid],absorption period versus current formulations,"admixed with cocoa butter or partially hydrolyzed cocoa butter emulsion, in words",able to sustain a longer absorption period than has been demonstrated with current retinoic acid formulations
same,steady state rate of absorption,both cocoa butter formulations,approximately 15 ng/cm^2 /hr
same,rate of absorption profile / flux,"both cocoa butter formulations, in words",higher than generally seen with other retinoic acid formulations; also recorded: relatively high flux rates
same,Penet (Total Penetration),[1],729.80 and 954.98 and 769.08 and 941.38 and 725.19 and 871.67 and 741.10 and 1267.53 and 552.40 and 552.46 and 685.17 and 944.68
same,% Abs (% Absorbed),[1],14.59% and 19.10% and 15.38% and 18.82% and 14.50% and 17.43% and 14.82% and 25.35% and 11.05% and 13.70% and 18.89%
same,"Rate of absorption, R1","butter (pure cocoa butter), sample R1, mid-t 2 h, individual skin sections",36.55 ng/cm^2 /hr and 48.20 ng/cm^2 /hr and 39.43 ng/cm^2 /hr and 51.22 ng/cm^2 /hr and 55.25 ng/cm^2 /hr and 66.87 ng/cm^2 /hr and 50.92 ng/cm^2 /hr and 79.43 ng/cm^2 /hr and 40.64 ng/cm^2 /hr and 39.67 ng/cm^2 /hr and 51.71 ng/cm^2 /hr and 75.03 ng/cm^2 /hr
same,"Rate of absorption, R3","butter (pure cocoa butter), sample R3, mid-t 10 h, individual skin sections",23.55 ng/cm^2 /hr and 28.39 ng/cm^2 /hr and 24.05 ng/cm^2 /hr and 29.61 ng/cm^2 /hr and 22.32 ng/cm^2 /hr and 21.53 ng/cm^2 /hr and 20.69 ng/cm^2 /hr and 34.12 ng/cm^2 /hr and 16.59 ng/cm^2 /hr and 15.24 ng/cm^2 /hr and 17.69 ng/cm^2 /hr and 25.75 ng/cm^2 /hr
same,"Rate of absorption, R4","butter (pure cocoa butter), sample R4, mid-t 18 h, individual skin sections",14.13 ng/cm^2 /hr and 23.33 ng/cm^2 /hr and 15.22 ng/cm^2 /hr and 18.56 ng/cm^2 /hr and 18.11 ng/cm^2 /hr and 20.56 ng/cm^2 /hr and 20.18 ng/cm^2 /hr and 33.78 ng/cm^2 /hr and 15.63 ng/cm^2 /hr and 14.10 ng/cm^2 /hr and 16.64 ng/cm^2 /hr and 23.97 ng/cm^2 /hr
same,"Rate of absorption, R5","butter (pure cocoa butter), sample R5, mid-t 30 h, individual skin sections",16.12 ng/cm^2 /hr and 19.00 ng/cm^2 /hr and 18.23 ng/cm^2 /hr and 16.25 ng/cm^2 /hr and 11.93 ng/cm^2 /hr and 15.30 ng/cm^2 /hr and 12.34 ng/cm^2 /hr and 23.05 ng/cm^2 /hr and 8.38 ng/cm^2 /hr and 9.60 ng/cm^2 /hr and 10.78 ng/cm^2 /hr and 16.34 ng/cm^2 /hr
same,"Rate of absorption, R6","butter (pure cocoa butter), sample R6, mid-t 42 h, individual skin sections",15.54 ng/cm^2 /hr and 17.94 ng/cm^2 /hr and 14.86 ng/cm^2 /hr and 24.92 ng/cm^2 /hr and 11.83 ng/cm^2 /hr and 16.34 ng/cm^2 /hr and 13.15 ng/cm^2 /hr and 24.58 ng/cm^2 /hr and 8.20 ng/cm^2 /hr and 9.16 ng/cm^2 /hr and 10.53 ng/cm^2 /hr and 14.03 ng/cm^2 /hr
same,Total Penetration,[2],811.29
same,Penet (Total Penetration),[3],848.81 and 901.37 and 683.68
same,Penet (Total Penetration),[4],683.68 and 901.37 and 848.81
same,"Rate of absorption, R1","butter, R1, mid-t 2 h, average of three donors",52.91 ng/cm^2 /hr
same,"Rate of absorption, R1","butter, R1, mid-t 2 h, average per skin donor (n=4), listed as RETINOIC ACID",43.85 ng/cm^2 /hr and 63.12 ng/cm^2 /hr and 51.76 ng/cm^2 /hr
same,"Rate of absorption, R1","butter, R1, mid-t 2 h, average per skin donor (n=4), listed as Retinoic Acid",51.76 ng/cm^2 /hr and 63.12 ng/cm^2 /hr and 43.85 ng/cm^2 /hr
same,"Rate of absorption, R3","butter, R3, mid-t 10 h, average of three donors",23.30 ng/cm^2 /hr
same,"Rate of absorption, R3","butter, R3, mid-t 10 h, average per skin donor (n=4), listed as RETINOIC ACID",26.40 ng/cm^2 /hr and 24.67 ng/cm^2 /hr and 18.82 ng/cm^2 /hr
same,"Rate of absorption, R3","butter, R3, mid-t 10 h, average per skin donor (n=4), listed as Retinoic Acid",18.82 ng/cm^2 /hr and 24.67 ng/cm^2 /hr and 26.40 ng/cm^2 /hr
same,"Rate of absorption, R4","butter, R4, mid-t 18 h, average of three donors",19.52 ng/cm^2 /hr
same,"Rate of absorption, R4","butter, R4, mid-t 18 h, average per skin donor (n=4), listed as RETINOIC ACID",17.81 ng/cm^2 /hr and 23.16 ng/cm^2 /hr and 17.59 ng/cm^2 /hr
same,"Rate of absorption, R4","butter, R4, mid-t 18 h, average per skin donor (n=4), listed as Retinoic Acid",17.59 ng/cm^2 /hr and 23.16 ng/cm^2 /hr and 17.81 ng/cm^2 /hr
same,"Rate of absorption, R5","butter, R5, mid-t 30 h, average of three donors",14.78 ng/cm^2 /hr
same,"Rate of absorption, R5","butter, R5, mid-t 30 h, average per skin donor (n=4), listed as RETINOIC ACID",17.40 ng/cm^2 /hr and 15.66 ng/cm^2 /hr and 11.28 ng/cm^2 /hr
same,"Rate of absorption, R5","butter, R5, mid-t 30 h, average per skin donor (n=4), listed as Retinoic Acid",11.28 ng/cm^2 /hr and 15.66 ng/cm^2 /hr and 17.40 ng/cm^2 /hr
same,"Rate of absorption, R6","butter, R6, mid-t 42 h, average of three donors",15.09 ng/cm^2 /hr
same,"Rate of absorption, R6","butter, R6, mid-t 42 h, average per skin donor (n=4), listed as RETINOIC ACID",18.31 ng/cm^2 /hr and 16.48 ng/cm^2 /hr and 10.48 ng/cm^2 /hr
same,"Rate of absorption, R6","butter, R6, mid-t 42 h, average per skin donor (n=4), listed as Retinoic Acid",10.48 ng/cm^2 /hr and 16.48 ng/cm^2 /hr and 18.31 ng/cm^2 /hr
same,% Absorbed / total absorption,[2],16.2%
same,% Absorbed / total absorption,"butter, 48 h, average of three donors, listed as Retinoic Acid",16.22%
same,% Abs (% Absorbed),[3],16.97% and 18.02% and 13.67%
same,% Abs (% Absorbed),[4],13.67% and 18.02% and 16.97%
